Reference: article PMC12814486 (Bioorganic & medicinal chemistry, 2025)
pIC50: −log10 of the molar value. Values after ≈ are worked out from the molar mass of the structure shown.

Assays:
human FAAH = target: T1, human FAAH (Homo sapiens, UniProt O00519); experiment: FAAH inhibition assay; assay type: biochemical
T1 sequence (O00519 1-579): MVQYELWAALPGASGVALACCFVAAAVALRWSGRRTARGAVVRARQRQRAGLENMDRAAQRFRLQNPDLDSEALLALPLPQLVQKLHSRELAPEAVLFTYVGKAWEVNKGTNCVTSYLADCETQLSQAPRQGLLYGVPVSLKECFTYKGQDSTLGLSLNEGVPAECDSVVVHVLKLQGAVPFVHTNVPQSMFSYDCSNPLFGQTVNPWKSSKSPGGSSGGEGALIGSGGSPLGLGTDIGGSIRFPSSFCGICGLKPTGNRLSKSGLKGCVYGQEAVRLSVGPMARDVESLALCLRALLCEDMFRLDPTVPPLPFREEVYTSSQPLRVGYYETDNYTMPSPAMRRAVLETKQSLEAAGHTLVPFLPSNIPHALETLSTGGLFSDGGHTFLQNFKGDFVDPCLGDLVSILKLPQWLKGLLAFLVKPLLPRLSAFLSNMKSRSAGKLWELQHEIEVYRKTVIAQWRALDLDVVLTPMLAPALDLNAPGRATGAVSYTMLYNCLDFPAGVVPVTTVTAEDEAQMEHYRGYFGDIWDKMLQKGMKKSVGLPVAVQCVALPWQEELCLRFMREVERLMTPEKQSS

mouse sEH = target: T2, mouse sEH (Mus musculus, UniProt P34914); experiment: sEH inhibition assay; assay type: biochemical
T2 sequence (P34914 1-554): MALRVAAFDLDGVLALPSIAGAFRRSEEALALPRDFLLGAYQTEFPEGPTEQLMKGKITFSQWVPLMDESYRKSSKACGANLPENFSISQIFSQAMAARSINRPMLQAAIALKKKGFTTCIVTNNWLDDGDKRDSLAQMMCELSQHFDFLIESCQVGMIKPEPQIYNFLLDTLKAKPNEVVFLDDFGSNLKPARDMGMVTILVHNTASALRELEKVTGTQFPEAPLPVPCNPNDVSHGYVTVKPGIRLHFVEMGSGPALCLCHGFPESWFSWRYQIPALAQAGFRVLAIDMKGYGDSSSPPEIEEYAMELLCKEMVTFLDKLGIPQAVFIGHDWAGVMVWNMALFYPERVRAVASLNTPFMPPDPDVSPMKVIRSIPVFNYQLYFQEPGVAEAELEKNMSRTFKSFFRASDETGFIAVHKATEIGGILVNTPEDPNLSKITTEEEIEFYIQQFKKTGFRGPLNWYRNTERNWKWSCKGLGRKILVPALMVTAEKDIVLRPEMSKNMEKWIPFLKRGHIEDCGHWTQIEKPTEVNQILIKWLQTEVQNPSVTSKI

Solubility assay = assay type: physicochemical; conditions: sodium phosphate buffer, pH 7.4, aqueous buffer, kinetic from dmso stock
human sEH = target: T3, human sEH (Homo sapiens, UniProt P34913); experiment: sEH inhibition assay; assay type: biochemical
T3 sequence (P34913 1-555): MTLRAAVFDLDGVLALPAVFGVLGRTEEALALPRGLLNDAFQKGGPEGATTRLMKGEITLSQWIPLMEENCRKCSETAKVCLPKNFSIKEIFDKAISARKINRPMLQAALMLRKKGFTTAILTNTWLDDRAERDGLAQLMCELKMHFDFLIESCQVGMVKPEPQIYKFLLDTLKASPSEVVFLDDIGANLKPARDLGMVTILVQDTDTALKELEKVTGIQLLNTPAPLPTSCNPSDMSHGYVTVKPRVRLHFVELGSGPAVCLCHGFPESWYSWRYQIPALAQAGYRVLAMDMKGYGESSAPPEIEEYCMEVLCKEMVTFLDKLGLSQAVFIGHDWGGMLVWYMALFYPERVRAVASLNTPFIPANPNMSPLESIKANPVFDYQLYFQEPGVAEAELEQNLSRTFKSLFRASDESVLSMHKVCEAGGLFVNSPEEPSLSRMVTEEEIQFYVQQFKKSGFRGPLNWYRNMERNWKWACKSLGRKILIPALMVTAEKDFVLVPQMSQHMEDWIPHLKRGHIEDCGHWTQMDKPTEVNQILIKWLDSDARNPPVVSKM

rat sEH = target: T4, rat sEH (Rattus norvegicus, UniProt P80299); experiment: sEH inhibition assay; assay type: biochemical
T4 sequence (P80299 1-554): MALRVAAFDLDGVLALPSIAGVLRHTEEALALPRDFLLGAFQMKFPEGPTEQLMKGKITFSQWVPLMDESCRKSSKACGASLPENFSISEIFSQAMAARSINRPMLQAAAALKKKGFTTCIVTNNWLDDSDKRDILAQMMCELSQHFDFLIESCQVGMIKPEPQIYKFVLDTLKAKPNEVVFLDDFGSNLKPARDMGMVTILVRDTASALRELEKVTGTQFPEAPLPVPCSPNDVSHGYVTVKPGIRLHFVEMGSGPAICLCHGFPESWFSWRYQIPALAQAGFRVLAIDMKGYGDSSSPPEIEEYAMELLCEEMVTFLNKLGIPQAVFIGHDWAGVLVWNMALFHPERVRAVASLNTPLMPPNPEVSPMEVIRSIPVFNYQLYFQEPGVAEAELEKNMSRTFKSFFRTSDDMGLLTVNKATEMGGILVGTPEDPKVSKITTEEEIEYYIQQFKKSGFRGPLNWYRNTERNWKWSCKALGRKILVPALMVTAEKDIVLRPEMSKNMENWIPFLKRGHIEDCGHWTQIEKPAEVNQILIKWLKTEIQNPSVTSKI

male Sprague-Dawley rats = experiment: Home cage wheel running; assay type: in vivo, rat; conditions: 3 mg/kg intraperitoneal, vs vehicle, n = 8/group

| SMILES | pIC50 (human FAAH) | pIC50 (mouse sEH) | solubility (Solubility assay) [µM] | pIC50 (human sEH) | pIC50 (rat sEH) | wheel revolutions in the 15 min after drug injection (male Sprague-Dawley rats) |
| --- | --- | --- | --- | --- | --- | --- |
| O=C(Nc1ccc(-c2ncccn2)cc1)C1CCN(S(=O)(=O)c2ccccc2Cl)CC1 [Compound 4a, 1-((2-chlorophenyl)sulfonyl)-N-(4-(pyrimidin-2-yl)phenyl)piperidine-4-carboxamide] | 6.76 | 6.47 | > 63 | 7.71 | 7.74 | – |
| O=C(Nc1ccc(-c2cncnc2)cc1)C1CCN(S(=O)(=O)c2ccccc2Cl)CC1 [Compound 4b, 1-((2-chlorophenyl)sulfonyl)-N-(4-(pyrimidin-5-yl)phenyl)piperidine-4-carboxamide] | 6.71 | 6.04 | > 63 | 8.25 | 8.31 | – |
| O=C(Nc1ccc(-c2ncc(F)cn2)cc1)C1CCN(S(=O)(=O)c2ccccc2Cl)CC1 [Compound 4c, 1-((2-chlorophenyl)sulfonyl)-N-(4-(5-fluoropyrimidin-2-yl)phenyl)piperidine-4-carboxamide] | 6.54 | 7.08 | 31 to 63 (≈ 14.7 to 29.9 µg/mL) | 7.63 | 7.32 | – |
| O=C(Nc1ccc(-c2ncc(Cl)cn2)cc1)C1CCN(S(=O)(=O)c2ccccc2Cl)CC1 [Compound 4d, 1-((2-chlorophenyl)sulfonyl)-N-(4-(5-chloropyrimidin-2-yl)phenyl)piperidine-4-carboxamide] | 6.34 | 7.05 | 31 to 63 (≈ 15.2 to 31 µg/mL) | 7.05 | 7.08 | – |
| Cc1cnc(-c2ccc(NC(=O)C3CCN(S(=O)(=O)c4ccccc4Cl)CC3)cc2)nc1 [Compound 4e, 1-((2-chlorophenyl)sulfonyl)-N-(4-(5-methylpyrimidin-2-yl)phenyl)piperidine-4-carboxamide] | 6.51 | 7.10 | 31 to 63 (≈ 14.6 to 29.7 µg/mL) | 7.13 | 7.13 | – |
| COc1cnc(-c2ccc(NC(=O)C3CCN(S(=O)(=O)c4ccccc4Cl)CC3)cc2)nc1 [Compound 4f, 1-((2-chlorophenyl)sulfonyl)-N-(4-(5-methoxypyrimidin-2-yl)phenyl)piperidine-4-carboxamide] | 6.74 | 7.49 | 31 to 63 (≈ 15.1 to 30.7 µg/mL) | 7.58 | 7.25 | – |
| O=C(Nc1ccc(-c2cnc(F)nc2)cc1)C1CCN(S(=O)(=O)c2ccccc2Cl)CC1 [Compound 4g, 1-((2-chlorophenyl)sulfonyl)-N-(4-(2-fluoropyrimidin-5-yl)phenyl)piperidine-4-carboxamide] | 6.76 | 6.79 | 31 to 63 (≈ 14.7 to 29.9 µg/mL) | 7.57 | 7.36 | – |
| O=C(Nc1ccc(-c2cnc(Cl)nc2)cc1)C1CCN(S(=O)(=O)c2ccccc2Cl)CC1 [Compound 4h, 1-((2-chlorophenyl)sulfonyl)-N-(4-(2-chloropyrimidin-5-yl)phenyl)piperidine-4-carboxamide] | 6.59 | 6.29 | 31 to 63 (≈ 15.2 to 31 µg/mL) | 7.49 | 7.15 | – |
| Cc1ncc(-c2ccc(NC(=O)C3CCN(S(=O)(=O)c4ccccc4Cl)CC3)cc2)cn1 [Compound 4i, 1-((2-chlorophenyl)sulfonyl)-N-(4-(2-methylpyrimidin-5-yl)phenyl)piperidine-4-carboxamide] | 5.91 | 6.67 | 31 to 63 (≈ 14.6 to 29.7 µg/mL) | 8.25 | 7.92 | – |
| COc1ncc(-c2ccc(NC(=O)C3CCN(S(=O)(=O)c4ccccc4Cl)CC3)cc2)cn1 [Compound 4j, 1-((2-chlorophenyl)sulfonyl)-N-(4-(2-methoxypyrimidin-5-yl)phenyl)piperidine-4-carboxamide] | 6.34 | 6.42 | 31 to 63 (≈ 15.1 to 30.7 µg/mL) | 8.11 | 7.75 | – |
| O=C(Nc1ccc(-c2cnc(C(F)(F)F)nc2)cc1)C1CCN(S(=O)(=O)c2ccccc2Cl)CC1 [Compound 4k, 1-((2-chlorophenyl)sulfonyl)-N-(4-(2-(trifluoromethyl)pyrimidin-5-yl)phenyl)piperidine-4-carboxamide] | 6.49 | 5.95 | 31 to 63 (≈ 16.3 to 33.1 µg/mL) | 7.02 | 6.87 | – |
| O=C(Nc1ccc(-c2cnc(Cl)nc2Cl)cc1)C1CCN(S(=O)(=O)c2ccccc2Cl)CC1 [Compound 4l, 1-((2-chlorophenyl)sulfonyl)-N-(4-(2,4-dichloropyrimidin-5-yl)phenyl)piperidine-4-carboxamide] | 5.70 | 7.39 | 31 to 63 (≈ 16.3 to 33.1 µg/mL) | 7.10 | 7.81 | – |
| O=C(Nc1ccc(-c2nnn[nH]2)cc1)C1CCN(S(=O)(=O)c2ccccc2Cl)CC1 [Compound 4n, N-(4-(1H-tetrazol-5-yl)phenyl)-1-((2-chlorophenyl)sulfonyl)piperidine-4-carboxamide] | < 5.00 | 6.70 | 31 to 63 (≈ 13.9 to 28.2 µg/mL) | 6.63 | 7.08 | – |
| O=C(Nc1ccc(-c2nnnn2C2CC2)cc1)C1CCN(S(=O)(=O)c2ccccc2Cl)CC1 [Compound 4o, 1-((2-chlorophenyl)sulfonyl)-N-(4-(1-cyclopropyl-1H-tetrazol-5-yl)phenyl)piperidine-4-carboxamide] | < 5.00 | 7.90 | 31 to 63 (≈ 15.1 to 30.7 µg/mL) | 7.66 | 7.53 | – |
| O=C(Nc1ccc(-c2nnnn2Cc2ccccc2)cc1)C1CCN(S(=O)(=O)c2ccccc2Cl)CC1 [Compound 4p, N-(4-(1-benzyl-1H-tetrazol-5-yl)phenyl)-1-((2-chlorophenyl)sulfonyl)piperidine-4-carboxamide] | < 5.00 | 6.98 | 31 to 63 (≈ 16.6 to 33.8 µg/mL) | 8.01 | 7.59 | – |
| COc1cnc(-n2nnnc2-c2ccc(NC(=O)C3CCN(S(=O)(=O)c4ccccc4Cl)CC3)cc2)c(OC)n1 [Compound 4q, 1-((2-chlorophenyl)sulfonyl)-N-(4-(1-(3,5-dimethoxypyrazin-2-yl)-1H-tetrazol-5-yl)phenyl)piperidine-4-carboxamide] | < 5.00 | 6.58 | 31 to 63 (≈ 18.1 to 36.9 µg/mL) | 6.67 | 6.52 | – |
| NC(=O)c1cccc(-c2cccc(OC(=O)NC3CCCCC3)c2)c1 [URB597, reference compound] | – | – | > 63 | – | – | – |
| CN1CC[C@]23c4c5ccc(O)c4O[C@H]2[C@@H](O)C=C[C@H]3[C@H]1C5 [morphine, reference compound] | – | – | – | – | – | significantly lower |
